Test results from patent publication US20070249620A1, “Urea Derivative” (priority 2004, published 2007).

Experiments:
mouse DGAT1 = biological target: T1, mouse DGAT1 (Mus musculus, UniProt Q9Z2A7); experiment: DGAT1 inhibitory effect test (microsome fraction, [14C]-oleoyl-CoA, triglyceride radioactivity by TLC); assay type: biochemical; conditions: 0.5 h; concentration of the test compound 0.1 μg/ml; mouse DGAT1 microsomes, 23° C., 30 minutes; read-out: Inhibitory ratio
T1 construct: made in house; host or cells: insect cells (High Five, Sf9, Sf21, etc.), baculovirus expression system (Invitrogen)
T1 sequence (Q9Z2A7 1-498): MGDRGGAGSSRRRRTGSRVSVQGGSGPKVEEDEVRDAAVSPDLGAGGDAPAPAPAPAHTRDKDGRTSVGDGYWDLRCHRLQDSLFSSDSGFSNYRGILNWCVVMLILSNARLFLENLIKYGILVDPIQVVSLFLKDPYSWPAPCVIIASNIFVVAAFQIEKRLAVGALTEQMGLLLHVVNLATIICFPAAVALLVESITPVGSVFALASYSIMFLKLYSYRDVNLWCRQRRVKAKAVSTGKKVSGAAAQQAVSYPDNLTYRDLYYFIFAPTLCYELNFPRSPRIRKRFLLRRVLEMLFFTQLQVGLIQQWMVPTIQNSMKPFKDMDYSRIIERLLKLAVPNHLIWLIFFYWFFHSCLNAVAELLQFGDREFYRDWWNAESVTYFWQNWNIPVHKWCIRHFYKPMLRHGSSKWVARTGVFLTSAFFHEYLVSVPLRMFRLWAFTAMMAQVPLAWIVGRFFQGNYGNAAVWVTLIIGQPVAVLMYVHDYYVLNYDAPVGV
Procedure, shortened: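 Baculovirus-expressed mouse DGAT1 insect-cell microsomes (10 μg) were incubated 30 min at 23 °C, pH 8.0, with 0.5 mM 1,2-dioleoyl-sn-glycerol, 30 μM [14C]-oleoyl-CoA and 0.5% Triton X-100. [14C]-triglyceride was quantified after heptane extraction and TLC. Percent inhibition was taken against vehicle control, with 0-min background subtracted.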

inhibition at 0.1 µg/mL (mouse DGAT1) [%]	melting point	Compound
≥ 50	119 to 121 °C	COc1ccc(C)cc1NC(=O)Nc1ccc2c(c1)CCN(C(=O)Nc1ccc(OCC(O)CO)cc1Cl)C2 (centres unmarked) [Example 280, 6-[3-(2-methoxy-5-methyl-phenyl)-ureido]-3,4-dihydro-1H-isoquinoline-2-carboxylic acid [2-chloro-4-(2,3-dihydroxy-propoxy)-phenyl]-amide]
≥ 50	125 to 128 °C	COc1ccc(C)cc1NC(=O)Nc1ccc(C2=CCN(C(=O)Nc3ccc(OCC(O)CO)cc3Cl)CC2)cc1 (centres unmarked) [Example 281, 4-{4-[3-(2-methoxy-5-methyl-phenyl)-ureido]-phenyl}-3,6-dihydro-2H-pyridine-1-carboxylic acid [2-chloro-4-(2,3-dihydroxy-propoxy)-phenyl]-amide]
≥ 50	135 to 137 °C	COc1ccc(C)cc1NC(=O)Nc1ccc(C2=CCN(C(=O)Nc3ccc(OCC(O)CO)cc3C(F)(F)F)CC2)cc1 (centres unmarked) [Example 282, 4-{4-[3-(2-methoxy-5-methyl-phenyl)-ureido]-phenyl}-3,6-dihydro-2H-pyridine-1-carboxylic acid [4-(2,3-dihydroxy-propoxy)-2-trifluoromethyl-phenyl]-amide]
≥ 50	179 to 181 °C	COc1ccc(C)cc1NC(=O)Nc1ccc(C2CCN(C(=O)Nc3ccc(OCC(O)CO)cc3Cl)CC2)cc1 (centres unmarked) [Example 283, 4-{4-[3-(2-methoxy-5-methyl-phenyl)-ureido]-phenyl}-piperidine-1-carboxylic acid [2-chloro-4-(2,3-dihydroxy-propoxy)-phenyl]-amide]
≥ 50	107 to 111 °C	COc1ccccc1NC(=O)Nc1ccc2c(c1)CCN(C(=O)Nc1ccc(OCC(O)CO)cc1Cl)C2 (centres unmarked) [Example 284, 6-[3-(2-methoxy-phenyl)-ureido]-3,4-dihydro-1H-isoquinoline-2-carboxylic acid [2-chloro-4-(2,3-dihydroxy-propoxy)-phenyl]-amide]
≥ 50	108 to 110 °C	COc1cc(NC(=O)Nc2ccc3c(c2)CCN(C(=O)Nc2ccc(OCC(O)CO)cc2Cl)C3)cc(OC)c1 (centres unmarked) [Example 285, 6-[3-(3,5-dimethoxy-phenyl)-ureido]-3,4-dihydro-1H-isoquinoline-2-carboxylic acid [2-chloro-4-(2,3-dihydroxy-propoxy)-phenyl]-amide]
≥ 50	103 to 107 °C	COc1ccccc1NC(=O)Nc1ccc(C2=CCN(C(=O)Nc3ccc(OCC(O)CO)cc3Cl)CC2)cc1 (centres unmarked) [Example 286, 4-{4-[3-(2-methoxy-phenyl)-ureido]-phenyl}-3,6-dihydro-2H-pyridine-1-carboxylic acid [2-chloro-4-(2,3-dihydroxy-propoxy)-phenyl]-amide]
≥ 50	108 to 111 °C	COc1cc(NC(=O)Nc2ccc(C3=CCN(C(=O)Nc4ccc(OCC(O)CO)cc4Cl)CC3)cc2)cc(OC)c1 (centres unmarked) [Example 287, 4-{4-[3-(3,5-dimethoxy-phenyl)-ureido]-phenyl}-3,6-dihydro-2H-pyridine-1-carboxylic acid [2-chloro-4-(2,3-dihydroxy-propoxy)-phenyl]-amide]
≥ 50	158 to 161 °C	COc1ccccc1NC(=O)Nc1ccc(C2CCN(C(=O)Nc3ccc(OCC(O)CO)cc3Cl)CC2)cc1 (centres unmarked) [Example 288, 4-{4-[3-(2-methoxy-phenyl)-ureido]-phenyl}-piperidine-1-carboxylic acid [2-chloro-4-(2,3-dihydroxy-propoxy)-phenyl]-amide]
≥ 50	105 to 108 °C	COc1cc(NC(=O)Nc2ccc(C3CCN(C(=O)Nc4ccc(OCC(O)CO)cc4Cl)CC3)cc2)cc(OC)c1 (centres unmarked) [Example 289, 4-{4-[3-(3,5-dimethoxy-phenyl)-ureido]-phenyl}-piperidine-1-carboxylic acid [2-chloro-4-(2,3-dihydroxy-propoxy)-phenyl]-amide]
≥ 50	164 to 167 °C	O=C(Nc1ccc2c(c1)CCN(C(=O)Nc1ccc(OCC(O)CO)cc1Cl)C2)Nc1ccccc1F (centres unmarked) [Example 290, 6-[3-(2-fluoro-phenyl)-ureido]-3,4-dihydro-1H-isoquinoline-2-carboxylic acid [2-chloro-4-(2,3-dihydroxy-propoxy)-phenyl]-amide]
≥ 50	134 to 139 °C	CCOc1cccc(NC(=O)Nc2ccc3c(c2)CCN(C(=O)Nc2ccc(OCC(O)CO)cc2Cl)C3)c1 (centres unmarked) [Example 291, 6-[3-(3-ethoxy-phenyl)-ureido]-3,4-dihydro-1H-isoquinoline-2-carboxylic acid [2-chloro-4-(2,3-dihydroxy-propoxy)-phenyl]-amide]
≥ 50	170 to 175 °C	O=C(Nc1ccc(C2CCN(C(=O)Nc3ccc(OCC(O)CO)cc3Cl)CC2)cc1)Nc1ccccc1F (centres unmarked) [Example 292, 4-{4-[3-(2-fluoro-phenyl)-ureido]-phenyl}-piperidine-1-carboxylic acid [2-chloro-4-(2,3-dihydroxy-propoxy)-phenyl]-amide]
≥ 50	174 to 176 °C	COc1ccc(C)cc1NC(=O)Nc1ccc2c(c1)CCN(C(=O)Nc1ccc(OCC(O)CO)cc1C(F)(F)F)C2 (centres unmarked) [Example 293, 6-[3-(2-methoxy-5-methyl-phenyl)-ureido]-3,4-dihydro-1H-isoquinoline-2-carboxylic acid [4-(2,3-dihydroxy-propoxy)-2-trifluoromethyl-phenyl]-amide]
≥ 50	209 to 211 °C	COc1ccc(C)cc1NC(=O)Nc1ccc(N2CCN(C(=O)Nc3ncccc3C)CC2)cc1 [Example 294, 4-{4-[3-(2-methoxy-5-methyl-phenyl)-ureido]-phenyl}-piperazine-1-carboxylic acid (3-methyl-pyridin-2-yl)-amide]
≥ 50	> 250 °C (dec.)	Cc1cccnc1NC(=O)N1CCN(c2ccc(NC(=O)Nc3ccccc3F)cc2)CC1 [Example 295, 4-{4-[3-(2-fluoro-phenyl)-ureido]-phenyl}-piperazine-1-carboxylic acid (3-methyl-pyridin-2-yl)-amide]
≥ 50	206 to 208 °C	COc1ccc(F)cc1NC(=O)Nc1ccc(N2CCN(C(=O)Nc3ncccc3C)CC2)cc1 [Example 296, 4-{4-[3-(5-fluoro-2-methoxy-phenyl)-ureido]-phenyl}-piperazine-1-carboxylic acid (3-methyl-pyridin-2-yl)-amide]
≥ 50	196 to 198 °C	COc1ccc(F)cc1NC(=O)Nc1ccc(N2CCN(C(=O)Nc3ncccc3C)CC2)nc1 [Example 298, 4-{5-[3-(5-fluoro-2-methoxy-phenyl)-ureido]-pyridin-2-yl}-piperazine-1-carboxylic acid (3-methyl-pyridin-2-yl)-amide]
≥ 50	214 to 215 °C	CCOc1ccc(Cl)cc1NC(=O)Nc1ccc(N2CCN(C(=O)Nc3ncccc3C)CC2)nc1 [Example 299, 4-{5-[3-(5-chloro-2-ethoxy-phenyl)-ureido]-pyridin-2-yl}-piperazine-1-carboxylic acid (3-methyl-pyridin-2-yl)-amide]
